In general, ΔTm refers to the shift of the melting midpoint relative to a reference.

These results are taken from ChEMBL document CHEMBL5724796, “Tm Shift (DSF) assay results for EUbOPEN Chemogenomics Library” (2024).

Experiment [1] concerns the target T1, Peregrin (Homo sapiens) (UniProt P55201).
T1 sequence (whole entry): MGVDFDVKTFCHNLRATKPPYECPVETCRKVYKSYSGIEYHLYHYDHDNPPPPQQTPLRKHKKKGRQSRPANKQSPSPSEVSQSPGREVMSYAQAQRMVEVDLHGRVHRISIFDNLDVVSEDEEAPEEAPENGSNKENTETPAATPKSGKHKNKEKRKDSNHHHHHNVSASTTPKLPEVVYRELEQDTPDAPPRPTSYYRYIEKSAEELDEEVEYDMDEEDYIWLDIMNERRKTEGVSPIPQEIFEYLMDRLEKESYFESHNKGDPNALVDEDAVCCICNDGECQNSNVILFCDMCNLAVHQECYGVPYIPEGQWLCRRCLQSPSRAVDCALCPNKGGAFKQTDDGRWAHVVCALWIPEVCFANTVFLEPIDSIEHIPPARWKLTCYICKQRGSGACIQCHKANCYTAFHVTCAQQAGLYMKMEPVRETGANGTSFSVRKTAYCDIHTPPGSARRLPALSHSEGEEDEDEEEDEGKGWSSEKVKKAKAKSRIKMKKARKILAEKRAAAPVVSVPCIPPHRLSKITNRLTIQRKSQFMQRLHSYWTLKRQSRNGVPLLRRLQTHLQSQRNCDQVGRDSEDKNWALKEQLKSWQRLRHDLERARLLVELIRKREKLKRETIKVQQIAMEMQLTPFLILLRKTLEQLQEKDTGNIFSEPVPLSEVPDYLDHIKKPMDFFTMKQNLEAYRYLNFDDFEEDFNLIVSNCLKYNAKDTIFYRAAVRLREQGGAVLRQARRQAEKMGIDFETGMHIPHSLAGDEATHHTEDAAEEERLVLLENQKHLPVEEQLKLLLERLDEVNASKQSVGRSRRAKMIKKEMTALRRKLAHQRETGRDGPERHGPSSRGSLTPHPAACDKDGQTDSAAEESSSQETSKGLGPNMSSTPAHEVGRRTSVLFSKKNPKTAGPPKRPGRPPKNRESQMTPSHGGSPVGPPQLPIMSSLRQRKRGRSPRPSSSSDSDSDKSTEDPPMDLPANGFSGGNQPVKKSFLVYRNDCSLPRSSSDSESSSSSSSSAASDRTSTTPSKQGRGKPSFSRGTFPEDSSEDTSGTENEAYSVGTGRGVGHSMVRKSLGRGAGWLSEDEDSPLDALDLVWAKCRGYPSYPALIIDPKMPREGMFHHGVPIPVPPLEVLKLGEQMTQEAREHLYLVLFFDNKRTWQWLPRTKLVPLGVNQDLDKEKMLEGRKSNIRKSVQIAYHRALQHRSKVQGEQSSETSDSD
The following applies: Compound concentration 20.0 uM.

For experiment [2], the target named is Fibroblast growth factor receptor 2 (Homo sapiens) (UniProt P21802). Particulars: Compound concentration 20.0 uM.
Fibroblast growth factor receptor 2 (Homo sapiens), sequence (P21802 22-821 limits assumed): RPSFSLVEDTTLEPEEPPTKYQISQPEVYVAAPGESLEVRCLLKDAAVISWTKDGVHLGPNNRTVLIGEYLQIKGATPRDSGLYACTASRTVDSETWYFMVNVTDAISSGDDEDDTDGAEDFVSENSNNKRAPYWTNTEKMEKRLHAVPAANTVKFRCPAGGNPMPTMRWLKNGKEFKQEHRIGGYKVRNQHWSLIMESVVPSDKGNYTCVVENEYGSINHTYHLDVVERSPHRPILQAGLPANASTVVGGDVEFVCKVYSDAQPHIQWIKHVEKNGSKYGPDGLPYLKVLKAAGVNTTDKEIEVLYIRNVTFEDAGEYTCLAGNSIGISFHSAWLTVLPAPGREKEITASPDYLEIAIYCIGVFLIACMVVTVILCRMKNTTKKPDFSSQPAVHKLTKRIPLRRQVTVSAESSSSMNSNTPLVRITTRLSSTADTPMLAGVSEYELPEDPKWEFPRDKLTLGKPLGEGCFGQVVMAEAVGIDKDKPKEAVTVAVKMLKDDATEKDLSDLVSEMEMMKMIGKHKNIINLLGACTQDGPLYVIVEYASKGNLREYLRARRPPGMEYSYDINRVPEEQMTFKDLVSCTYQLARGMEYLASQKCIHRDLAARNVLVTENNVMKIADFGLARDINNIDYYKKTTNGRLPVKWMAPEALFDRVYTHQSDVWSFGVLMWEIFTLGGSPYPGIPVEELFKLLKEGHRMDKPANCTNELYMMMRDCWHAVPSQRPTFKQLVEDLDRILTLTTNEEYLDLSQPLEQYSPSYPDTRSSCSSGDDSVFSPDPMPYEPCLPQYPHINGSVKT
Description: Thermal Shift Assay. Domain: start/stop: T457-E768

Residues, ends and D or L forms follow the SMILES beside them. *: point of attachment. Cbz = O=C(OCc1ccccc1)*; CH2F = FC*

As for `CC#CCn1c(N2CCC[C@@H](N)C2)nc2c1c(=O)n(Cc1nc(C)c3ccccc3n1)c(=O)n2C`, the results for the thermal shift (ΔTm) in experiment [1] and in experiment [2] were 0.04 °C and 0.28 °C, respectively.
For `Cc1ccnc(NS(=O)(=O)c2ccc(NC(=O)Nc3ccc(S(=O)(=O)Nc4nccc(C)n4)cc3)cc2)n1` the same measures were 0.27 °C and -0.47 °C.
Taken in the same sequence, the figures for `O=C(Nc1ccc2[nH]nc(-c3ccncc3)c2c1)[C@@H]1CCN(CC(=O)N2CCN(c3ccc(-c4ncccn4)cc3)CC2)C1` were -0.34 °C and 0.95 °C.
Taken in the same sequence, the figures for `O=C(O)C1=CCCN(CCON=C(c2ccccc2)c2ccccc2)C1` were 0.57 °C and 0.48 °C.
As for `CSc1cccc(Nc2ncc3cc(-c4c(Cl)cccc4Cl)c(=O)n(C)c3n2)c1`, the ΔTm in experiment [1] is -0.8 °C; in experiment [2], -0.92 °C.
For `O=C(CCl)Nc1ccc(S(=O)(=O)c2ccc(NC(=O)CCl)cc2)cc1` the same measures were 0.78 °C and 0.88 °C.
Taken in the same sequence, the figures for `CCc1ccccc1NC(=O)CSC(=O)NNC(=O)[C@H](Cc1c[nH]c2ccccc12)NC(=O)OC(C)(C)C` were -6.08 °C and -9.39 °C.
Taken in the same sequence, the figures for `CC(=O)OCCN1C(=O)c2c(C)nc3ccc(S(=O)(=O)N4CCOCC4)cc3c2C1=O` were -0.89 °C and 0.68 °C.
`N=C(N)NC(=O)c1cnn(-c2cccc3ncccc23)c1C1CC1`: the ΔTm in experiment [1] is -0.17 °C; in experiment [2] it was -0.51 °C.
For `C[C@H](Nc1cc(Cl)nc2c1cnn2[C@@H]1O[C@H](COP(=O)(O)CP(=O)(O)O)[C@@H](O)[C@H]1O)c1ccccc1F` the same measures were -1.02 °C and 0.2 °C.
For `Cc1ncsc1-c1ccc([C@H](C)NC(=O)[C@@H]2C[C@@H](O)CN2C(=O)[C@@H](NC(=O)COCCCOCCNC(=O)C[C@@H]2N=C(c3ccc(Cl)cc3)c3c(sc(C)c3C)-n3c(C)nnc32)C(C)(C)C)cc1` the same measures were -1.73 °C and -0.49 °C.
On to `COc1cc2c(NC3CCN(C4CCCCC4)CC3)nc(N3CCCN(C(C)C)CC3)nc2cc1OCCCN1CCCCC1`, for which the ΔTm in experiment [1] is -1.05 °C; in experiment [2], 0.34 °C.
Turning to `CC(=O)NCC(=O)N1CCC[C@@H]1B(O)O`, the figures for the ΔTm in experiment [1] and in experiment [2] were 2.29 °C and 0.51 °C, respectively.
Taken in the same sequence, the figures for `CCCCN(Cc1ccc(C(=O)NO)cc1)C(=O)Nc1ccccc1` were -0.92 °C and -0.44 °C.
As to `N#C[C@@H]1CCCN1C(=O)[C@@H]1CCCN1C(=O)CCCc1ccccc1`, the thermal shift (ΔTm) in experiment [1] was -1.55 °C; in experiment [2] it was 0.84 °C.
For the compound `CC(C)(C)NS(=O)(=O)c1cccc2c(NC(=O)[C@H](Cc3ccccc3)NC(=O)C3CCCCC3)cccc12`, the results for the ΔTm in experiment [1] and in experiment [2] were 0.28 °C and 0.01 °C, respectively.
For `O=C(c1cc(Cc2n[nH]c(=O)c3ccccc23)ccc1F)N1CCN(C(=O)C2CC2)CC1` the same measures were 0.96 °C and -0.16 °C.
Taken in the same sequence, the figures for `Cc1ccc2c(c1)nc(/C=C/c1cccc3cccnc13)n2-c1cccc(OCCCN2CCN(C)CC2)c1` were 0.16 °C and 0.24 °C.
Consider `COc1cc2c(cc1-c1c(C)noc1C)[nH]c1nc(C)nc(-c3ccnc4ccccc34)c12`, for which the figures for the ΔTm in experiment [1] and in experiment [2] were 1.04 °C and -1.02 °C, respectively.
With `O=c1[nH]c(CS[C@H]2CC[C@H](O)CC2)nc2cc(OCC3CC3)cc(F)c12`, the thermal shift (ΔTm) in experiment [1] was -0.24 °C; in experiment [2], -0.27 °C.
Taken in the same sequence, the figures for `O=C(NCCCCCCCCNC(=O)C(Cl)Cl)C(Cl)Cl` were 0.99 °C and -0.34 °C.
For `CC[C@H](C)[C@H](NC(C)=O)C(=O)N[C@@H](CCC(=O)O)C(=O)N[C@H](C(=O)N[C@H](C=O)CC(=O)O)[C@@H](C)O` (Ac-IETD-aldehyde) the same measures were -0.66 °C and 0.37 °C.
Taken in the same sequence, the figures for `Cc1[nH]c2c(N3CCO[C@H](CO)C3)c(C#N)c(C(F)(F)F)nc2c1Cl` were 1.11 °C and 0.41 °C.
As to `Cc1ncsc1-c1ccc(CNC(=O)[C@@H]2C[C@@H](O)CN2C(=O)[C@@H](NC(=O)COCCOCCOc2ccc(-c3ccc4ncnc(Nc5ccc(OCc6cccc(F)c6)c(Cl)c5)c4c3)cc2)C(C)(C)C)cc1`, the values for the ΔTm in experiment [1] and in experiment [2] were 0 °C and -3.99 °C, respectively.
Taken in the same sequence, the figures for `Nc1cc(F)ccc1NC(=O)c1ccc(CNC(=O)/C=C/c2cccnc2)cc1` were -0.89 °C and 0.58 °C.
For `CCOCC1(COCC)CCC(c2n[nH]cc2CN(C)CCNC)CC1` the same measures were -0.75 °C and -0.35 °C.
Regarding `CC(=O)Nc1ccc(C(=O)Nc2ccc(F)cc2N)cc1`, the results for the ΔTm in experiment [1] and in experiment [2] were 1.03 °C and 0.76 °C, respectively.
Taken in the same sequence, the figures for `CCC[C@@H]1CNCc2c1[nH]c(=O)c(C#N)c2N1CCC2(CC1)CC2` were -1.25 °C and 0.64 °C.
Taken in the same sequence, the figures for `C[C@H]1CCCN1Cc1nc2cc(NC(=O)c3ccc4c(cnn4C)c3)ccc2[nH]1` were -1.47 °C and 0.51 °C.
For `CC(C)Oc1ccc(C=O)cc1` the same measures were -0.07 °C and 0.13 °C.
On to `N#Cc1c(N)[nH]c2cc(/C=C/c3cccc(F)c3)ccc12`, for which the ΔTm worked out at 6.38 °C in experiment [1] and 1.59 °C in experiment [2].
Take `Nc1nc(C(F)(F)F)nc2c1nnn2C[C@H]1CN(Cc2nccs2)CCO1`: the ΔTm in experiment [1] was found to be 1.22 °C; in experiment [2], 0.48 °C.
For `Nc1ccc(-c2cccs2)cc1NC(=O)c1ccc2nc(N3CCNCC3)ccc2c1` the same measures were 0.96 °C and 0.98 °C.
For `O=C1/C(=N/Nc2ccc(S(=O)(=O)O)cc2)C(c2ccc([N+](=O)[O-])cc2)=NN1c1ccccc1` the same measures were 0.37 °C and 0.4 °C.
For `O=C(O)C1CCCN(CCC=C(c2ccccc2)c2ccccc2)C1` (stereo not drawn) the same measures were 0.59 °C and 0.41 °C.
As for `O=C(NCCCn1ccnc1)c1cc2nc(-c3ccccc3)cc(-c3ccccc3)n2n1`, the figures for the ΔTm in experiment [1] and in experiment [2] were -1.26 °C and 0.5 °C, respectively.
Taken in the same sequence, the figures for `COC(=O)CC[C@H](NC(=O)[C@H](C)NC(=O)OCc1ccccc1)C(=O)N[C@H](C(=O)N[C@@H](CC(=O)OC)C(=O)CF)C(C)C` (Cbz-AE(OMe)VD(OMe)-CH2F) were -0.82 °C and 0.54 °C.
With `CCCSc1nc2c(c(=O)n1-c1ccccc1)SCC2`, the ΔTm was determined as 0.27 °C in experiment [1] and 0.36 °C in experiment [2].
With `O=C(NC[C@H](O)CN1CCc2ccccc2C1)c1cc(NC2COC2)ncn1`, the thermal shift (ΔTm) is -1.25 °C in experiment [1] and 0.37 °C in experiment [2].
For `CC(C)Cn1c(=O)n(C)c(=O)c2c(C(=O)N3CC[C@@H](O)C3)c(Cc3ccnc4ccccc34)sc21` the same measures were 0.74 °C and 0.61 °C.
For `O=[N+]([O-])c1ccc(CSc2ncnc3c2ncn3[C@@H]2O[C@H](CO)[C@@H](O)[C@H]2O)cc1` the same measures were 1.12 °C and 0.22 °C.
For `COC[C@H](NC(=O)c1ccn(S(C)(=O)=O)c1)C(=O)Nc1nc(-c2cccc(-c3ccn(C)n3)c2)cs1` the same measures were -0.52 °C and 0.09 °C.
For `CCCCCCCCCCCCCC(=S)NCCCC[C@H](NC(=O)OCc1ccccc1)C(=O)Nc1ccccc1`, the ΔTm came out at 3.33 °C in experiment [1] and 0.84 °C in experiment [2].
Taken in the same sequence, the figures for `Cc1cc(OCCCNCCC(N)=O)ccc1Cc1c(O[C@@H]2O[C@H](CO)[C@@H](O)[C@H](O)[C@H]2O)n[nH]c1C(C)C` were 1.37 °C and 0.45 °C.
